Experimental data: US12071624B2, “Antisense oligonucleotide targeting ARL4C molecule, and nucleic acid drug using antisense oligonucleotide” (OSAKA UNIVERSITY, priority 2018, dated 2024)

Key:
Format in all cases: cell-based, human
ARL4C mRNA [1] = experiment: ARL4C mRNA amount by real-time PCR in HLE cells
Protocol: (§1) HLE cells, HCT116 cells, and A549 cells were transfected with 25 to 50 nM ASO and 10 to 20 nM siRNA using Lipofectamine 3000 (Invitrogen, Carlsbad, CA, USA) or RNAiMAX (Invitrogen). Transfected cells were used in the experiments 36 to 48 hours after the end of the transfection.
(§2) Cell migration assays and quantitative real-time PCR analyses were performed according to the methods reported by Fujii S et al. (Oncogene 2015; 34: 4834-44).
(§3) HLE cells and HCT116 cells were transfected with the above-described seven types of ARL4C ASOs and the control ASO at 25 nM, and the ARL4C mRNA amounts were measured by real-time PCR; the results thereof are shown in (a) of FIG. 4. […] In order to optimize the effect of these three types of ARL4C ASOs, four bases were added to each of these three types of ARL4C ASOs, whereby ASO-1312, ASO-1450, and ASO-3223 each of which consisted of 19 bases were produced. With these six types of ARL4C ASOs (ASO-1316, ASO-1312, ASO-1454, ASO-1450, ASO-3225, and ASO-3223), the knockdown effect on ARL4C was further studied.
HLE cells were transfected with ARL4C ASOs (ASO-1316, ASO-1312, ASO-1454, ASO-1450, ASO-3225, and ASO-3223) at 25 nM each, and the ARL4C mRNA amounts were measured by real-time PCR; the results are shown in (c) of FIG. 3. In addition, HLE cells were transfected with ARL4C ASOs (ASO-1316, ASO-1312, ASO-3225, and ASO-3223) at 0.5 to 25 nM each, and the ARL4C mRNA amounts were measured by real-time PCR; the results are shown in (b) of FIG. 4.
HLE cells were treated with 10 μM PD184161 or 10 nM CTNNB1 siRNA (siRNA against CTNNB1), and the ARL4C mRNA amount was measured by real-time PCR; the results are shown in (a) of FIG. 5. In addition, HLE cells were treated with 10 nM CTNNB1 siRNA (siRNA against CTNNB1), and the ARL4C mRNA amount was measured by real-time PCR; the results thereof are shown in (a) of FIG. 6. PD184161 is a compound that inhibits MEK without knocking down […].

PIK3CD mRNA [2] = experiment: PIK3CD mRNA amount by real-time PCR in HLE cells; conditions: HLE cells treated with 25 μM SecinH3
Protocol: as §1, §2
HLE cells were treated with 25 μM SecinH3 (inhibitor of Arf nucleotide-binding site opener (ARNO)) or 50 μM NSC23766 (Rac inhibitor), and the amount of PIK3CD mRNA was measured by real-time PCR; the results are shown in (c) of FIG. 5.
HLE cells were transfected with control ASO, ASO-1316, and ASO-3223 at 25 nM, and the PIK3CD mRNA amount was measured by real-time PCR; the results are shown in (g) of FIG. 5. In addition, an anti-phosphorylated AKT (pAKT S473) antibody and an anti-AKT antibody as probes were caused to act on cell lysates of HLE cells transfected with control ASO, ASO-1316, and ASO-3223; the results are shown in (h) of FIG. 5.

PIK3CD mRNA [3] = experiment: PIK3CD mRNA amount by real-time PCR in ARL4C-expressing HepG2 cells; conditions: ARL4C-transduced HepG2 cells, 25 μM SecinH3 or 50 μM NSC23766
ARL4C mRNA [4] = experiment: Screening of ARL4C ASO knockdown efficiency by real-time PCR in A549 cells; conditions: screening of 38 types of ARL4C ASOs
Protocol: as §1, §2
First, base sequences of 15-nucleotide ARL4C were selected based on the structure of ARL4C mRNA. From thousands of ARL4C ASO candidates, those that may cause hepatotoxicity were excluded, and 38 types of ARL4C ASOs (those other than ASO-1312, ASO-1450 and ASO-3223 among the ASOs in Table 1) were selected, by high-dimensional structure prediction of ARL4C mRNA. The ASOs used in this test were those in which all of the phosphodiester bonds were substituted with phosphorothioate bonds. Knockdown efficiencies of ARL4C ASOs in A549 cells (lung adenocarcinoma cells) were investigated by screening experiments using real-time PCR. It has been confirmed that the protein abundance of ARL4C in A549 cells is reduced by treatment with ARL4C siRNA. The ARL4C mRNA amounts in A549 cells treated with 38 types of ARL4C ASOs were measured, and the results are shown in (a) of FIG. 3.

ARL4C mRNA [5] = experiment: ARL4C mRNA amount by real-time PCR in HCT116 cells; conditions: HCT116 cells transfected at 25 nM
Protocol: as §1, §2, §3

Molecule: O=C(NOCC1CC1)c1cc(Br)c(F)c(F)c1Nc1ccc(I)cc1Cl [PD184161, reference compound]
- ARL4C mRNA amount (ARL4C mRNA [1]; HLE cells treated with 10 μM PD184161): reduced ARL4C mRNA amount

Molecule: COc1nc(-c2ccc3c(c2)OCO3)n(-c2ccc(NC(=O)CSc3ccccc3)cc2)n1 [SecinH3, reference compound]
- PIK3CD mRNA amount (PIK3CD mRNA [2]): reduced the PIK3CD mRNA amount
- PIK3CD mRNA amount (PIK3CD mRNA [3]): suppressed an increase in the PIK3CD mRNA amount

Molecule: CCN(CC)CCCC(C)Nc1nc(C)cc(Nc2ccc3nc(C)cc(N)c3c2)n1 (centres unmarked) [NSC23766]
- PIK3CD mRNA amount (PIK3CD mRNA [3]): suppressed an increase in the PIK3CD mRNA amount

Molecule: ASO-3225: 15-mer ARL4C ASO of Table 1, SEQ ID NO 35 (antisense NNNTTACAGTATNNG; AmNA modifications; Amido-bridged nucleic acid (AmNA); modified_base (1)..(1) n is Adenine having a structure of AmNA (2′,4′- bridged nucleotide in which R is a methyl group); (1)..(3) n is a, c, g, or t; modified_base (2)..(2) n is Guanine having a structure of AmNA (2′,4′- bridged nucleotide in which R is a methyl group); modified_base (3)..(3) n is Guanine having a structure of AmNA (2′,4′- bridged nucleotide in w)
- knockdown efficiency (ARL4C mRNA amount) (ARL4C mRNA [4]): high knockdown efficiencies
- ARL4C mRNA amount (ARL4C mRNA [1]; HLE cells transfected at 25 nM): reduced the ARL4C mRNA amount
- ARL4C mRNA amount (ARL4C mRNA [5]): reduced the ARL4C mRNA amount

Molecule: ASO-1065: 15-mer ARL4C ASO of Table 1, SEQ ID NO 11 (antisense NNNAAATCAGACNNC; AmNA modifications; Amido-bridged nucleic acid (AmNA); modified_base (1)..(1) n is Guanine having a structure of AmNA (2′,4′- bridged nucleotide in which R is a methyl group); (1)..(3) n is a, c, g, or t; modified_base (2)..(2) n is Guanine having a structure of AmNA (2′,4′- bridged nucleotide in which R is a methyl group); modified_base (3)..(3) n is Thymine having a structure of AmNA (2′,4′- bridged nucleotide in w)
- knockdown efficiency (ARL4C mRNA amount) (ARL4C mRNA [4]): high knockdown efficiencies

Molecule: ASO-650: 15-mer ARL4C ASO of Table 1, SEQ ID NO 8 (antisense NNNTGGCAGCTGNNG; AmNA modifications; Amido-bridged nucleic acid (AmNA); modified_base (1)..(1) n is Adenine having a structure of AmNA (2′,4′- bridged nucleotide in which R is a methyl group); (1)..(3) n is a, c, g, or t; modified_base (2)..(2) n is Adenine having a structure of AmNA (2′,4′- bridged nucleotide in which R is a methyl group); modified_base (3)..(3) n is Guanine having a structure of AmNA (2′,4′- bridged nucleotide in w)
- knockdown efficiency (ARL4C mRNA amount) (ARL4C mRNA [4]): high knockdown efficiencies

Molecule: ASO-793: 15-mer ARL4C ASO of Table 1, SEQ ID NO 9 (antisense NNNTGGTCACCTNNT; AmNA modifications; Amido-bridged nucleic acid (AmNA); modified_base (1)..(1) n is Adenine having a structure of AmNA (2′,4′- bridged nucleotide in which R is a methyl group); (1)..(3) n is a, c, g, or t; modified_base (2)..(2) n is 5-methylcytosine having a structure of AmNA (2′,4′-bridged nucleotide in which R is a methyl group); modified_base (3)..(3) n is Thymine having a structure of AmNA (2′,4′- bridged nucleot)
- knockdown efficiency (ARL4C mRNA amount) (ARL4C mRNA [4]): high knockdown efficiencies

Molecule: ASO-986: 15-mer ARL4C ASO of Table 1, SEQ ID NO 10 (antisense NNNTCATAGAGCNNG; AmNA modifications; Amido-bridged nucleic acid (AmNA); modified_base (1)..(1) n is Adenine having a structure of AmNA (2′,4′- bridged nucleotide in which R is a methyl group); (1)..(3) n is a, c, g, or t; modified_base (2)..(2) n is 5-methylcytosine having a structure of AmNA (2′,4′-bridged nucleotide in which R is a methyl group); modified_base (3)..(3) n is Thymine having a structure of AmNA (2′,4′- bridged nucleot)
- knockdown efficiency (ARL4C mRNA amount) (ARL4C mRNA [4]): high knockdown efficiencies

Molecule: ASO-1454: 15-mer ARL4C ASO of Table 1, SEQ ID NO 14 (antisense NNNACAAATGAANNT; AmNA modifications; Amido-bridged nucleic acid (AmNA); modified_base (1)..(1) n is Adenine having a structure of AmNA (2′,4′- bridged nucleotide in which R is a methyl group); (1)..(3) n is a, c, g, or t; modified_base (2)..(2) n is Guanine having a structure of AmNA (2′,4′- bridged nucleotide in which R is a methyl group); modified_base (3)..(3) n is Guanine having a structure of AmNA (2′,4′- bridged nucleotide in w)
- knockdown efficiency (ARL4C mRNA amount) (ARL4C mRNA [4]): high knockdown efficiencies
- ARL4C mRNA amount (ARL4C mRNA [1]; HLE cells transfected at 25 nM): reduced the ARL4C mRNA amount
- ARL4C mRNA amount (ARL4C mRNA [5]): reduced the ARL4C mRNA amount
